Laboratory results as given in patent EP0072137A1, “Antiviral deoxyuridine compounds” (BEECHAM GROUP PLC, priority 1981, dated 1983).
In brackets after ≈: the same amount, converted by molar mass. Where two headings read alike, the source gives them in different places.

How the values were obtained:
[1] = In vivo blood level study: antiviral activity of mouse serum titrated in plaque inhibition assays; set-up: species or system Balb/c mice
Experimental: Single 100 mg/kg doses of the compound were administered orally as suspensions in carboxymethyl cellulose to groups of 3 starved female Balb/c mice. Blood was collected 120 minutes after dosing and the serum separated and stored at -20°C. Heat inactivated sera from single mice were titrated in plaque inhibition assays using the KOS strain of Herpes simplex type 1 virus in Vero cell monolayers. Antiviral activity is calculated by extrapolation from a standard inhibition dose response curve for E-5-(2-bromovinyl)-2'-deoxyuridine and is quoted as the equivalent concentration of E-5-(2-bromovinyl)-2'-deoxyuridine (in ug/mL) giving the same antiviral activity in cell culture.

[2] = tested on: Herpes simplex type 1 virus (HFEM strain); assay: Plaque reduction assay in cell culture; format: cell-based; settings: Human alphaherpesvirus 1, 144 h; concentration causing a 50% reduction in the number of virus plaques; HSV-1 HFEM strain in Vero cells, 37°C, 6 days; read-out: PDD50 (the source's name)
Experimental: (§1) Vero (African Green Monkey Kidney) cells were grown to confluence in 6 well multidishes, each well being 3.5 cm in diameter. The cells were incubated with Herpes simplex type 1 virus (HFEM strain) and overlaid with 0.5 ml of 0.9% agarose (w/v) in maintenance medium containing the test compound at a range of concentrations from 100 pg/mL in half-log dilution steps. The virus infected cultures were then incubated at 37°C for 6 days before fixing in 4% formaldehyde solution and staining with carbolfuchsin. The dishes were then examined to find what concentration of test compound causing a 50% reduction in the number of virus plaques formed (PDD50 value) and the minimum concentration of test compound which killed the cell monolayer, leaving a clear zone devoid of cells and virus plaques (MTD).

[3] = Toxicity to the cell monolayer (MTD) in the plaque reduction assay; format: cell-based; settings: monkey; minimum concentration which killed the cell monolayer; Vero cells, 6 days
Experimental: as §1

Compound | concentration at 2 h ([1]; single 100 mg/kg oral dose, suspension in carboxymethyl cellulose, starved female Balb/c mice, 120 minutes after dosing, HSV-1 KOS in Vero cell monolayers, read-out: Antiviral activity in serum, as equivalent concentration of E-5-(2-bromovinyl)-2'-deoxyuridine) | EC50 [2] | concentration at 2 h ([1]; po, 100 mg/kg) | MCC at 144 h [3]
O=c1[nH]c(=O)n([C@H]2C[C@H](O)[C@@H](CO)O2)cc1/C=C/Br [E-5-(2-bromo-vinyl)-2'-deoxyuridine, E-5-(2-bromovinyl)-2'-deoxyuridine, reference compound] | 1700 ± 500 ng/mL | – | – | –
Cn1c(=O)c(/C=C/Br)cn([C@H]2C[C@H](O)[C@@H](CO)O2)c1=O [Example 1, E-3-methyl-5-(2-bromovinyl)-2'-deoxyuridine] | – | 5.4 µg/mL (≈ 15.6 µM) | 3100 ± 800 ng/mL | > 100 µg/mL
